Source: article PMC9980389, “Structural and biochemical insights into PsEst3, a new GHSR-type esterase obtained from Paenibacillus sp. R4” (IUCrJ, 2023)

Key:
PsEst3 [1] = molecular target: T1, PsEst3 (Paenibacillus sp. R4, UniProt Z9AKP1HDK8); assay: fluorescein diester hydrolysis, fluorescence […] nm; assay type: biochemical; conditions: 20 mM Tris-HCl pH 8.0, 150 mM NaCl, 30 °C, 0.1 µM substrate, 10% 2-ethoxyethanol, 0.005% CHAPS
T1 construct: pET-22b in E. coli BL21(DE3)/pPsyGroELS, 6xHis tag kept (Ni-NTA, SEC); residues 4-258 built, including part of the His tag
T1 sequence (Z9AKP1HDK8 1-257): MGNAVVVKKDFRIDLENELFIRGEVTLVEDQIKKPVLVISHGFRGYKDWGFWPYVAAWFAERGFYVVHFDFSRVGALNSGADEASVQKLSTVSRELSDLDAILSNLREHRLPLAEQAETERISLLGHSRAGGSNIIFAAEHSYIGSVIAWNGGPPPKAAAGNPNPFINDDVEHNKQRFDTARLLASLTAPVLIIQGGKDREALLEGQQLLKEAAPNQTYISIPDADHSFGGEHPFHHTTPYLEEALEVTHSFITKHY

PsEst3 [2] = molecular target: T1, PsEst3; assay: inhibition of pNP-C2 hydrolysis, absorbance […] nm; assay type: biochemical; conditions: substrate pNP-C2

Row | Compound | fluorescein diester hydrolysis, fluorescence 492/512 nm (PsEst3 [1]) | % decrease in activity at 2.4 mM (PsEst3 [2])
1 | CCCC(=O)Oc1ccc2c(c1)Oc1cc(OC(=O)CCC)ccc1C21OC(=O)c2ccccc21 [fluorescein-diC4, fluorescein dibutyrate] | fluorescein diesters (fluorescein-diC4, fluorescein-diC8 and fluorescein-diC12) were measured | –
2 | O=C(O)/C=C\C(=O)O [maleic acid] | – | ~ 40%
